Measurements reported in patent US20250375456A1, “AGENT FOR PREVENTING OR TREATING RESPIRATORY DISEASE” (Nippon Chemiphar Co., Ltd., priority 2021, published 2025).

Legend:
Assay type in all cases: in vivo, guinea pig
[1] = system: cigarette smoke-exposed guinea pigs; experiment: Number of cells in bronchoalveolar lavage fluid (BALF) in cigarette smoke-exposed model
Text: (§1) Male Hartley guinea pigs (manufactured by Japan SLC, Inc., Slc: Hartley, SPF) were used in the test. The guinea pigs were purchased at 5 weeks old. The weights at the time of the purchase were about 300 to 350 g. After arrival, the guinea pigs were provided with an acclimation period of 9 days, including the day of receipt. During the above period, the clinical symptoms of the animals were observed once a day. In addition, on the last day of the acclimation period, the animals were weighed and the health status was measured. It was confirmed that there were no abnormal clinical signs or […] in any of the animals. Body weights on the last day of the acclimation (that is, at the beginning of exposure to cigarette smoke) were about 390 to 450 g.
(§2) Experimental animals were prepared with reference to Non Patent Literature 2. Specifically, guinea pigs exposed to cigarette smoke using a smoking exposure system (INH06-CIG01A, INH06-CIG02, M.I.P.S. Inc.) were used in the experiment. Each guinea pig was placed in an exposure holder (one per cage), and the holder was secured in the exposure chamber. The animals were exposed to the smoke of 30 cigarette per day, 5 days a week, for 4 weeks, the smoke being generated by a mainstream smoke generator. In the fourth week, the exposure was for 4 days (smoking period was from […]). As for the cigarettes, Peace (no filter, tar: 28 mg, nicotine: 2.3 mg, Japan Tobacco Inc., Peace is a registered trademark of Japan Tobacco Inc.) was used.
(§3) The placebo and each drug were administered by forced oral administration into the stomach using a disposable syringe equipped with a gastric catheter. As for the administration frequency, repetitive administration was performed once a day for 25 days from Day 1 to Day 25. The administration time was 1 hour (±5 minutes) before the cigarette smoke-exposure. The dose was 5 mL/kg. The actual amount of each drug administered to each guinea pig was calculated based on the most recent weight.
The measurement was performed after the day after the last cigarette smoke exposure (Day 26).
After sacrificing the guinea pigs by bleeding under anesthesia, bronchoalveolar lavage fluid (BALF) was collected according to the following operating procedure.
(1) After ligating the left main bronchus with a thread, a cannula was inserted into the trachea and fixed.
(2) 5 mL of saline was injected into the right lung through the cannula, and the lavage fluid was collected by gentle suctioning. BALF was collected by repeating this procedure twice (a total of 10 mL).
The pellet was suspended in 1 mL of saline, and the number of WBCs were counted using an automated hematology analyzer with a BALF analysis area (XT-2000iV, Sysmex Corporation). The counting was performed by adjusting the smear preparation. The smear preparation was performed by centrifuging the cell suspension again and suspending the obtained pellet in 75% FBS (fetal bovine serum and saline). After drying, the smear preparation was Wright-Giemsa stained.
The percentages of neutrophils, macrophages, eosinophil, and lymphocytes with respect to total WBCs were obtained, and the numbers of the cells per 1 μL were calculated.

[2] = system: cigarette smoke-exposed guinea pigs; experiment: Measurement of citric acid-induced cough reflex in cigarette smoke-exposed model; details: for mean number of cough reflexes: Day 20 or 21, 2 hours after administration, 0.1 mol/L citric acid, 15 minutes
Text: as §1, §2, §3
Measurements were performed 1 day or 2 days after the last cigarette smoke exposure during Week 3 (Day 20 or Day 21).
The measurements were performed 2 hours after the administration of the placebo or various drugs.
The guinea pigs were placed in the inhalation chamber of the respiratory function measurement system (Pulmos-I, M.I.P.S. Co.). Cough reflex was induced by inhaling citric acid (lot no. M8K7523, manufactured by NACALAI TESQUE, INC.) for 3 minutes from the front side of the chamber using an ultrasonic nebulizer. […] The presence or absence of a cough reflex was determined from the sound during the cough reflex, the movement of the animal, and the respiratory function. Before the measurement on the day of the administration, the animals were placed in the chamber for 15 minutes or longer to acclimatize to the experimental environment. Note that the respiratory function (respiratory rate (RR), tidal volume (TV), peak expiratory flow (PEF), and minute volume (MV)) was measured immediately before the citric acid inhalation. The respiratory function was measured by the body side sensor of the respiratory function measurement system.

[3] = system: cigarette smoke-exposed guinea pigs; experiment: Measurement of respiratory function (double flow plethysmography) in cigarette smoke-exposed model
Text: as §1, §2
Unless otherwise specified, various evaluations were performed on the day after the last cigarette smoke-exposure in the second week (Day 13) and the day after the last cigarette smoke-exposure (Day 26).
The solvent of Compound A was used as the placebo of the control group.
as §3
Respiratory function in conscious guinea pigs was measured by double flow plethysmography using a respiratory function measurement system (Pulmos-I, M.I.P.S Inc.). The measurement parameters were specific airway resistance (sRaw), tidal volume (TV), respiratory rate (RR), minute volume (MV), and peak expiratory flow (PEF). The average value of the measurement values obtained with 100 breaths was considered as the measurement value for each measurement day.

[4] = Measurement of weights in cigarette smoke-exposed model; details: Day 1 to Day 26; Compound A 3, 10, 30 mg/kg, gefapixant 10 mg/kg, oral once a day
Text: as §1
Experimental animals were prepared with reference to Non Patent Literature 2. Specifically, guinea pigs exposed to cigarette smoke using a smoking exposure system (INH06-CIG01A, INH06-CIG02, M.I.P.S. Inc.) were used in the experiment. […]
The placebo and each drug were administered by forced oral administration into the stomach using a disposable syringe equipped with a gastric catheter. […] The actual amount of each drug administered to each guinea pig was calculated based on the most recent weight.
The weights were measured with an electronic balance (MSA4202S, Sartorius Japan K.K.) before the research operation on Days 1, 8, 15, 22, and 26.

[5] = Day 26, high-dose group 30 mg/kg oral
[6] = Day 26, low-dose group 3 mg/kg oral
[7] = Day 26, medium-dose group 10 mg/kg oral
[8] = Day 13, 10 mg/kg oral once a day
[9] = Day 26, 10 mg/kg oral once a day

With `O=C1CC(=O)N(c2ccc(NC(=O)c3ccccc3I)cc2)c2ccc3ccccc3c2N1` [Compound B48, 5-[4-(2-iodobenzoylamino)phenyl]-1H-naphtho[1,2-b][1,4]diazepine-2,4(3H,5H)-dione] the “mean number of macrophages in BALF” value ([1]; Day 26, 10 mg/kg oral) was 20.2 ×10^2 cells/μL, the “mean number of total WBCs in BALF” value ([1]; Day 26, 10 mg/kg oral) was 30.1 ×10^2 cells/μL and the “macrophages, dose dependence” value ([1]; Day 26, 3, 10, 30 mg/kg oral) was “smaller than that in the control (placebo) group in a dose-dependent manner”. The “neutrophils, dose dependence” value ([1]; Day 26, 3, 10, 30 mg/kg oral) was “tendency of decreasing in a dose-dependent manner”, the “number of eosinophils compared to the control (placebo) group” value ([1]; Day 26, 3, 10, 30 mg/kg oral) was “no significant difference” and the “number of lymphocytes compared to the control (placebo) group” value ([1]; Day 26, 3, 10, 30 mg/kg oral) was “no significant difference”. For the same molecule, the “total WBCs, dose dependence” value ([1]; Day 26, 3, 10, 30 mg/kg oral) was “smaller than that in the control (placebo) group in a dose-dependent manner”, the “mean number of eosinophils in BALF” value [1, 5] was 5.6 ×10^2 cells/μL and the “mean number of lymphocytes in BALF” value [1, 5] was 1.0 ×10^2 cells/μL. For the same molecule, the “mean number of macrophages in BALF” value [1, 5] was 12.0 ×10^2 cells/μL, the “mean number of neutrophils in BALF” value [1, 5] was 2.3 ×10^2 cells/μL and the “mean number of total WBCs in BALF” value [1, 5] was 20.9 ×10^2 cells/μL. For the same molecule, the “number of macrophages compared to the control (placebo) group” value [1, 5] was “significantly suppressed”, the “total number of WBCs compared to the control (placebo) group” value [1, 5] was “significantly suppressed” and the “mean number of eosinophils in BALF” value [1, 6] was 4.8 ×10^2 cells/μL. For the same molecule, the “mean number of lymphocytes in BALF” value [1, 6] was 1.1 ×10^2 cells/μL, the “mean number of macrophages in BALF” value [1, 6] was 25.0 ×10^2 cells/μL and the “mean number of neutrophils in BALF” value [1, 6] was 3.1 ×10^2 cells/μL. The “mean number of total WBCs in BALF” value [1, 6] was 33.9 ×10^2 cells/μL, the “mean number of eosinophils in BALF” value [1, 7] was 6.1 ×10^2 cells/μL and the “mean number of lymphocytes in BALF” value [1, 7] was 1.2 ×10^2 cells/μL. For the same molecule, the “mean number of neutrophils in BALF” value [1, 7] was 2.5 ×10^2 cells/μL, the “number of cough reflexes compared to the control (placebo) group” value ([2]; 10 mg/kg oral) was “no significant difference” and the “mean number of cough reflexes” value ([2]; 10 mg/kg oral) was 6.9. The “number of cough reflexes compared to the control (placebo) group” value ([2]; high-dose group 30 mg/kg oral) was “tendency of suppressing the cough reflex”, the “mean number of cough reflexes” value ([2]; high-dose group 30 mg/kg oral) was 3.6 and the “number of cough reflexes compared to the control (placebo) group” value ([2]; low-dose group 3 mg/kg oral) was “no significant difference”. For the same molecule, the “mean number of cough reflexes” value ([2]; low-dose group 3 mg/kg oral) was 6.0, the “minute volume (MV), dose dependence” value ([3]; 3, 10, 30 mg/kg oral) was “tendency of increasing in a dose-dependent manner” and the “peak expiratory flow (PEF), dose dependence” value ([3]; 3, 10, 30 mg/kg oral) was “tendency of increasing in a dose-dependent manner”. The “tidal volume (TV), dose dependence” value ([3]; 3, 10, 30 mg/kg oral) was “tendency of increasing in a dose-dependent manner”, the “sRaw, dose dependence” value ([3]; 3, 10, 30 mg/kg oral, Day 13 and Day 26) was “decreased in a dose-dependent manner” and the “specific airway resistance (sRaw)” value [3, 8] was 1.711 cmH2O·sec. For the same molecule, the “specific airway resistance (sRaw)” value ([3]; Day 13, high-dose group 30 mg/kg oral once a day) was 1.556 cmH2O·sec, the “sRaw compared to the control (placebo) group” value ([3]; Day 13, high-dose group 30 mg/kg oral, P<0.05) was “significant decrease” and the “specific airway resistance (sRaw)” value ([3]; Day 13, low-dose group 3 mg/kg oral once a day) was 1.755 cmH2O·sec. For the same molecule, the “specific airway resistance (sRaw)” value [3, 9] was 2.017 cmH2O·sec, the “respiratory rate (RR), dose dependence” value ([3]; Day 26, 3, 10, 30 mg/kg oral) was “tendency of decreasing in a dose-dependent manner” and the “specific airway resistance (sRaw)” value ([3]; Day 26, high-dose group 30 mg/kg oral once a day) was 1.994 cmH2O·sec. For the same molecule, the “specific airway resistance (sRaw)” value ([3]; Day 26, low-dose group 3 mg/kg oral once a day) was 2.105 cmH2O·sec, the “PEF compared to the control (placebo) group” value ([3]; all Compound A groups (3, 10, 30 mg/kg)) was “higher” and the “MV compared to the control (placebo) group” value ([3]; medium-dose group (10 mg/kg) and high-dose group (30 mg/kg)) was “higher”. For the same molecule, the “weight changes compared to the control (placebo) group” value [4] was “comparable”.
With `COc1cc(C(C)C)c(Oc2cnc(N)nc2N)cc1S(N)(=O)=O` [Gefapixant, reference compound] the “effect on the changes in the number of cells in BALF” value ([1]; 10 mg/kg oral) was “did not have an effect”, the “mean number of macrophages in BALF” value ([1]; Day 26, 10 mg/kg oral) was 24.4 ×10^2 cells/μL and the “mean number of total WBCs in BALF” value ([1]; Day 26, 10 mg/kg oral) was 40.0 ×10^2 cells/μL. The “number of macrophages compared to the control (placebo) group” value ([1]; Day 26, 10 mg/kg oral) was “no significant different”, the “total number of WBCs compared to the control (placebo) group” value ([1]; Day 26, 10 mg/kg oral) was “no significant different” and the “number of cough reflexes compared to the control (placebo) group” value ([2]; 10 mg/kg oral) was “no significant difference”. The “mean number of cough reflexes” value ([2]; 10 mg/kg oral) was 4.5, the “effect on the respiratory function” value ([3]; 10 mg/kg oral) was “did not have a significant effect” and the “specific airway resistance (sRaw)” value [3, 8] was 1.675 cmH2O·sec. The “sRaw compared to the control (placebo) group” value ([3]; Day 13 and Day 26, 10 mg/kg oral) was “no significant difference”, the “specific airway resistance (sRaw)” value [3, 9] was 2.066 cmH2O·sec and the “weight changes compared to the control (placebo) group” value [4] was “comparable”.
